“And” between values parts separate entries of the source, which are not always exact repeats. Identical values can stand only once.
What was measured:
[1] = biological target: chimera RXFP2-1 (extracellular domain of RXFP2, transmembrane domain of RXFP1) (human); parameters: EC50 of the cAMP response (HTRF cAMP assay, transiently transfected HEK293T cells): unit not given beside the values
human RXFP1 = biological target: T1, human RXFP1 (Homo sapiens, UniProt Q9HBX9); assay: HTRF cAMP counter-screen in HEK293T cells expressing human RXFP1; type: cell-based; details: human RXFP1, positive control, experiments (1)-(3)
T1 construct: FLAG (N); expressed in transfected cells
T1 sequence (Q9HBX9 1-757): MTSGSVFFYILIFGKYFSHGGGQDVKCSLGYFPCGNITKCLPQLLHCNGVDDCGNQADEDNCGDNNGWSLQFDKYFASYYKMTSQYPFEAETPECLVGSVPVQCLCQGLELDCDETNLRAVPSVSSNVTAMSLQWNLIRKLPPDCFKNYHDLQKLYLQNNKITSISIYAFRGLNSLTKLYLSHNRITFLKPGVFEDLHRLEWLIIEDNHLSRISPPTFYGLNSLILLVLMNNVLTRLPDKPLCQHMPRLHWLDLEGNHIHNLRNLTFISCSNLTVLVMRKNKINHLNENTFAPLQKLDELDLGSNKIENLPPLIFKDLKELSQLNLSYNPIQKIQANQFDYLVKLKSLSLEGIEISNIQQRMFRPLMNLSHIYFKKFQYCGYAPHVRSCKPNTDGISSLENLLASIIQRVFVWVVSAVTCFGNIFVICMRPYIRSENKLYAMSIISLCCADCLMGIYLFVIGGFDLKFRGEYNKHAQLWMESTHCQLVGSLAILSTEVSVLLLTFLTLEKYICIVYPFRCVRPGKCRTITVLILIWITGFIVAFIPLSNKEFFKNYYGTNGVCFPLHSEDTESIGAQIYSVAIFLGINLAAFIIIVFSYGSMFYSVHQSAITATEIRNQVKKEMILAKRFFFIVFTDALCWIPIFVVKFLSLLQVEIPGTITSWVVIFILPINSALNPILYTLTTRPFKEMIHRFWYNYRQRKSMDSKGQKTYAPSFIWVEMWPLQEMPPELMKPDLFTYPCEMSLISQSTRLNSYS
Experimental: (§1) The HTRF Gs dynamic cAMP assay kit (CisBio, Bedford, MA) was used to measure intracellular cAMP accumulation in HEK293T cells (ATCC, Manassas, VA)[56]. […] The cell stock was verified mycoplasma free and authenticated by ATCC. Transient transfection was accomplished by treating cells in a 6-well plate with a mixture of 2 μg plasmid and 6 μL Lipofectamine 2000 (Invitrogen, Waltham, MA) per manufacturer’s protocol and incubating overnight. For cAMP measurement in 96-well format, HEK293T cells stably transfected with human RXFP2 (HEK-RXFP2), human RXFP1 (HEK-RXFP1), mouse Rxfp1 (HEK-Rxfp1) or transiently transfected with human RXFP1-RXFP2 chimeric receptors were seeded between 7500 and 30,000 cells per well, depending on cell line responsiveness, in serum-free DMEM medium and incubated overnight at 37 °C, 5% CO2. After 18 h, cells were treated with a titration of compound, 2 μM forskolin, or DMSO vehicle. Control wells were also treated with a titration of INSL3 (Phoenix Pharmaceuticals, Burlingame, CA) or human recombinant relaxin 2 (Peprotech, Cranbury, NJ). For the RXFP2 antagonist experiment, cells were co-treated with 0.28 μM compound or 30 nM INSL3 and a titration of the INSL3 B dimer antagonist[38],[39]. For the INSL3 allosteric modulation experiment, cells were co-treated with 0.025, 0.0025, or 0.00025 μM of compound and a titration of INSL3. Cells were incubated for 1 h at 37 °C, 5% CO2, and then kit cAMP-d2 and anti-cAMP antibody were added per manufacturer protocol. Plates were incubated for 1 h at room temperature and the signal was read on a CLARIOstar plate reader (BMG Labtech, Ortenberg, Germany) at 665 and 620 nm emission wavelengths. […]
(§2) receptors. HTRF cAMP counter-screen of RXFP2 agonists in HEK293T cells expressing a human RXFP1 and b mouse RXFP1. Relaxin 2 was used as positive control for RXFP1 receptor activation. Results are expressed as mean ± SEM of 3

mouse RXFP1 = biological target: T2, mouse RXFP1 (Mus musculus, UniProt Q6R6I7); assay: HTRF cAMP counter-screen in HEK293T cells expressing mouse RXFP1; type: cell-based; details: mouse RXFP1, positive control, experiments (1)-(3)
T2 construct: FLAG (N); expressed in transfected cells
T2 sequence (Q6R6I7 1-758): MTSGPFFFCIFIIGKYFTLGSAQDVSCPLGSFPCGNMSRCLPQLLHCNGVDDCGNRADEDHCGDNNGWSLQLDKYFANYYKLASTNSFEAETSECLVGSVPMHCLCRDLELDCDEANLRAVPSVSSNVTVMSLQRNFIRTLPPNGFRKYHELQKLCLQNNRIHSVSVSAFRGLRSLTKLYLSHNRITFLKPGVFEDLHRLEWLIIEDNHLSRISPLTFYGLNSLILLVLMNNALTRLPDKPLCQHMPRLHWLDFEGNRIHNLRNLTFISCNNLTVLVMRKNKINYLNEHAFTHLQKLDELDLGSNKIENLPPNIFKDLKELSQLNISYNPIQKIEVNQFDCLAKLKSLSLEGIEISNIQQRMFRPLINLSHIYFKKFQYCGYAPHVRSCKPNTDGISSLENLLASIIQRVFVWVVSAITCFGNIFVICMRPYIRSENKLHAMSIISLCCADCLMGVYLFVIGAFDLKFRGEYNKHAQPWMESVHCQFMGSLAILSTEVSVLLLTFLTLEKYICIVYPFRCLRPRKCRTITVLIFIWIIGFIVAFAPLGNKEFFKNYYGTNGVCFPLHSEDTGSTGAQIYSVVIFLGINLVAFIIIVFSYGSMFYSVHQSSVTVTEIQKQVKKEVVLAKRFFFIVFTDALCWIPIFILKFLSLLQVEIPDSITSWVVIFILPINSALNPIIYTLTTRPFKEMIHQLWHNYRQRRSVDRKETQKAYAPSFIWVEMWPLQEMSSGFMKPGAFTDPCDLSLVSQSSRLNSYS
Experimental: as §1, §2

| Substance | EC50 of the cAMP response (HTRF cAMP assay, transiently transfected HEK293T cells) [1] | Emax of the cAMP response (HTRF cAMP assay, transiently transfected HEK293T cells; normalized to 2 µM FSK as 100% efficacy) [1] | % Eff (cAMP) (human RXFP1; Log [M] -7) | % Eff (cAMP) (human RXFP1; Log [M] -8) | % Eff (cAMP) (human RXFP1; Log [M] -9) | % Eff (cAMP) (human RXFP1; Log [M] -11) | % Eff (cAMP) (mouse RXFP1; Log [M] -7) | % Eff (cAMP) (mouse RXFP1; Log [M] -8) | % Eff (cAMP) (mouse RXFP1; Log [M] -9) | % Eff (cAMP) (mouse RXFP1; Log [M] -10) | % Eff (cAMP) (mouse RXFP1; Log [M] -11) |
| --- | --- | --- | --- | --- | --- | --- | --- | --- | --- | --- | --- |
| insulin-like factor 3 peptide (INSL3) (ligand) | 0.74 | 92.3 |  |  |  |  |  |  |  |  |  |
| Relaxin |  |  | 514.186% and 485.16% and 431.341% | 600.088% and 494.195% and 523.956% | 370.096% and 250.531% and 374.784% | -0.2294% and 1.737% and 3.775% | 488.966% and 468.543% and 521.705% | 318.502% and 312.701% and 407.269% | 105.124% and 102.88% and 64.6466% | 7.396% and 8.915% and 6.254% | 0.7539% and 1.08% and 0.2993% |

Source: article PMC9636434, “Discovery of small molecule agonists of the Relaxin Family Peptide Receptor 2” (Communications Biology, 2022)
